From ChEMBL document CHEMBL5357048, “A survey of stapling methods to increase affinity, activity, and stability of ghrelin analogues” (RSC Med Chem, 2024) come the findings set out here.

The target in assay [1] is T1, Growth hormone secretagogue receptor type 1 (Homo sapiens, UniProt Q92847). Put plainly: Displacement of [125I]ghrelin from GHSR1a in HEK293 cells by competitive binding assay. Format: cell-based. (In general: Displacement assays read how much labelled ligand stays bound in the presence of the test substance.)
T1 sequence (Q92847 whole entry): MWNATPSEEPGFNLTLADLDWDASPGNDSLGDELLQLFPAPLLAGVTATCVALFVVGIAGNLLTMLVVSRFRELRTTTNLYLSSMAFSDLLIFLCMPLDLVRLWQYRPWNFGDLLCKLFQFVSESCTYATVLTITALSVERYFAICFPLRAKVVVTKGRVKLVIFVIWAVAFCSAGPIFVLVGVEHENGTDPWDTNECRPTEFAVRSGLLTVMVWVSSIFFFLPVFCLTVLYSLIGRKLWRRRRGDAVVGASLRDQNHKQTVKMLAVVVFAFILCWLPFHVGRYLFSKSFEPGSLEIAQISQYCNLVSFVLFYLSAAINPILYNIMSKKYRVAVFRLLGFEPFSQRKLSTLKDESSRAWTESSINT
The target in assay [2] is T1, Growth hormone secretagogue receptor type 1. In words: Agonist activity at eYFP/RLuc-tagged GHSR1a (unknown origin) transfected in HEK293 cells assessed as beta-arrestin 1 recruitment incubated for 20 mins by BRET assay. Format: functional, cell-based.
Assay [3] shares this target. Put plainly: Displacement of […] [125I]-ghrelin from eYFP-labelled GHSR1a (unknown origin) transfected in HEK293 cells incubated for 20 mins by radioligand binding assay. It counts as cell-based.
For assay [4] the target is unchanged. Put plainly: Agonist activity at eYFP/RLuc-tagged GHSR1a (unknown origin) transfected in HEK293 cells assessed as beta-arrestin 2 recruitment incubated for 20 mins by BRET assay. It counts as functional, cell-based. (In general: Arrestin recruitment assays detect the binding of arrestin to an activated receptor.)

On to `CCCCCCCC(=O)OC[C@H](NC(=O)[C@H](CO)NCC(N)=O)C(=O)N[C@@H](Cc1ccccc1)C(=O)N[C@@H](CC(C)C)C(=O)N[C@@H](CO)C(=O)N1CCC[C@H]1C(=O)N[C@@H](CCC(=O)O)C(=O)N[C@@H](Cc1c[nH]cn1)C(=O)N[C@@H](CCC(N)=O)C(=O)N[C@@H](CCCNC(=N)N)C(=O)N[C@H](C(=O)N[C@@H](CCC(N)=O)C(=O)N[C@@H](CCC(N)=O)C(=O)N[C@@H](CCCNC(=N)N)C(=O)N[C@@H](CCCCN)C(=O)N[C@@H](CCC(=O)O)C(=O)N[C@@H](CO)C(=O)N[C@@H](CCCCN)C(=O)N[C@@H](CCCCN)C(N)=O)C(C)C`, for which the concentration for half-maximal inhibition (IC50) in assay [1] turned out to be 7.9 nM.

For the compound `CCCCCCCC(=O)OC[C@H](NC(=O)[C@H](CO)NCC(N)=O)C(=O)N[C@@H](Cc1ccccc1)C(=O)N[C@@H](CC(C)C)C(=O)N[C@@H](CO)C(=O)N1CCC[C@H]1C(=O)N[C@@H](CCC(=O)O)C(=O)N[C@@H](Cc1c[nH]cn1)C(=O)N[C@@H](CCC(N)=O)C(=O)N[C@@H](CCCNC(=N)N)C(=O)N[C@@]1(C)CCC/C=C\CCC[C@@](C)(C(=O)N[C@@H](CCC(=O)O)C(=O)N[C@@H](CO)C(=O)N[C@@H](CCCCN)C(=O)N[C@@H](CCCCN)C(=O)O)NC(=O)[C@H](CCCNC(=N)N)NC(=O)[C@H](CCC(N)=O)NC(=O)[C@H](CCC(N)=O)NC1=O`, the EC50 in assay [2] was determined as 77.2 nM; in assay [4] it was 114 nM. Besides, the IC50 in assay [3] was found to be 1.44 nM.

Regarding `CCCCCCCC(=O)OC[C@H](NC(=O)[C@H](CO)NCC(N)=O)C(=O)N[C@@H](Cc1ccccc1)C(=O)N[C@@H](CC(C)C)C(=O)N[C@@H](CO)C(=O)N1CCC[C@H]1C(=O)N[C@@H](CCC(=O)O)C(=O)N[C@@H](Cc1c[nH]cn1)C(=O)N[C@@H](CCC(N)=O)C(=O)N[C@@H](CCCNC(=N)N)C(=O)N[C@H]1CSCc2ccc(cc2)CSC[C@@H](C(=O)N[C@@H](CCC(=O)O)C(=O)N[C@@H](CO)C(=O)N[C@@H](CCCCN)C(=O)N[C@@H](CCCCN)C(=O)O)NC(=O)[C@H](CCCNC(=N)N)NC(=O)[C@H](CCC(N)=O)NC(=O)[C@H](CCC(N)=O)NC1=O`, the EC50 is 91.7 nM in assay [2] and 71.6 nM in assay [4]. In addition, the IC50 in assay [3] worked out at 4.93 nM.

For orientation: IC50 means the concentration needed to halve the response being measured. The term EC50 denotes the midpoint of the concentration-response curve.
